Where “and” joins values, the source holds several entries; their conditions need not be identical. Equal entries are not always repeated. Inconclusive results and toxic doses are left out. Where a SMILES comes first, the peptide text is derived from it. The star is where a group is joined. Cbz = O=C(OCc1ccccc1)*; Bn = c1ccc(C*)cc1
System: B6C3F1 mice, B16 melanoma ip, median survival T/C
Experiment: NCI In Vivo Anticancer Drug Screen. Data for tumor model B16 Melanoma (intraperitoneal) in B6C3F1 mice
Details: endpoint: median survival time, schedule: Q01DX009 (ip), higher = longer survival
Summary of the method: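 Transplantable tumor in mice; treated vs vehicle control groups; survival or tumor size measured; value = T/C ratio.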

[1] = dose: 100.0 mg/kg/injection, vehicle: Klucel (hydroxypropylcellulose) (HPC)
[2] = dose: 200.0 mg/kg/injection, vehicle: Klucel (hydroxypropylcellulose) (HPC)
[3] = dose: 12.5 mg/kg/injection, vehicle: saline
[4] = dose: 6.25 mg/kg/injection, vehicle: saline with Tween-80
[5] = dose: 12.5 mg/kg/injection, vehicle: saline with Tween-80
[6] = dose: 25.0 mg/kg/injection, vehicle: saline with Tween-80
[7] = dose: 50.0 mg/kg/injection, vehicle: saline with Tween-80
[8] = dose: 12.0 mg/kg/injection, vehicle: saline
[9] = dose: 25.0 mg/kg/injection, vehicle: Klucel (hydroxypropylcellulose) (HPC)
[10] = dose: 25.0 mg/kg/injection, vehicle: saline
[11] = dose: 50.0 mg/kg/injection, vehicle: saline
[12] = dose: 100.0 mg/kg/injection, vehicle: saline
[13] = dose: 200.0 mg/kg/injection, vehicle: saline
[14] = dose: 400.0 mg/kg/injection, vehicle: saline

CC(C)CC(C(=O)O)N(C)C(=O)OC(C)(C)C (stereo not drawn)
T/C [1]: 101 % of control
T/C [2]: 90 % of control

O=C(NC(CSCc1ccccc1)C(=O)NC(Cc1ccc(O)cc1)C(=O)O)OCc1ccccc1 (stereo not drawn) (Cbz-Cys(Bn)-Tyr-OH; configuration not given here)
T/C (dose: 100.0 mg/kg/injection, vehicle: saline with Tween-80): 90 % of control
T/C (dose: 200.0 mg/kg/injection, vehicle: saline with Tween-80): 101 % of control
T/C (dose: 400.0 mg/kg/injection, vehicle: saline with Tween-80): 87 % of control

CCOC(=O)N1CCN(CCCCCCOc2ccc(C3CCCCC3)cc2)CC1
T/C (dose: 1.56 mg/kg/injection, vehicle: saline): 110 % of control
T/C (dose: 3.13 mg/kg/injection, vehicle: saline): 93 % of control
T/C (dose: 6.25 mg/kg/injection, vehicle: saline): 101 % of control
T/C [3]: 97 % of control and 105 % of control

COC1=C(OC)C(=O)C(Sc2ccc3ccccc3c2)=CC1=O
T/C [4]: 86 % of control and 97 % of control
T/C [5]: 95 % of control
T/C [6]: 96 % of control
T/C [7]: 86 % of control

O=C1CCCCC1C(=O)C(F)(F)F (stereo not drawn)
T/C (dose: 4.5 mg/kg/injection, vehicle: saline + Tween-80 + alcohol): 103 % of control
T/C (dose: 9.0 mg/kg/injection, vehicle: saline + Tween-80 + alcohol): 93 % of control
T/C (dose: 18.0 mg/kg/injection, vehicle: saline + Tween-80 + alcohol): 87 % of control
T/C (dose: 50.0 mg/kg/injection, vehicle: saline + Tween-80 + alcohol): 102 % of control

CCN(CC)c1ccc2cc3ccc(=[N+](CC)CC)cc-3oc2c1
T/C (dose: 2.5 mg/kg/injection, vehicle: Klucel (hydroxypropylcellulose) (HPC)): 104 % of control
T/C (dose: 5.0 mg/kg/injection, vehicle: Klucel (hydroxypropylcellulose) (HPC)): 96 % of control
T/C (dose: 10.0 mg/kg/injection, vehicle: Klucel (hydroxypropylcellulose) (HPC)): 88 % of control

CN(C)N=Nc1ccc(C(N)=O)cc1
T/C (dose: 4.5 mg/kg/injection, vehicle: saline with Tween-80): 110 % of control
T/C (dose: 7.5 mg/kg/injection, vehicle: saline with Tween-80): 114 % of control
T/C (dose: 8.0 mg/kg/injection, vehicle: saline with Tween-80): 107 % of control
T/C [5]: 119 % of control and 120 % of control
T/C (dose: 13.0 mg/kg/injection, vehicle: saline with Tween-80): 101 % of control
T/C (dose: 20.83 mg/kg/injection, vehicle: saline with Tween-80): 114 % of control and 288 % of control
T/C (dose: 21.0 mg/kg/injection, vehicle: saline with Tween-80): 118 % of control
T/C (dose: 34.72 mg/kg/injection, vehicle: saline with Tween-80): 110 % of control and 115 % of control
T/C (dose: 35.0 mg/kg/injection, vehicle: saline with Tween-80): 111 % of control
T/C (dose: 57.86 mg/kg/injection, vehicle: saline with Tween-80): 124 % of control
T/C (dose: 58.0 mg/kg/injection, vehicle: saline with Tween-80): 118 % of control
T/C (dose: 96.0 mg/kg/injection, vehicle: saline with Tween-80): 117 % of control

CN(N=O)C(N)=O
T/C [8]: 188 % of control

C=C(OP(=O)(OC)OC)Sc1ccccc1C
T/C (dose: 0.06 mg/kg/injection, vehicle: Klucel (hydroxypropylcellulose) (HPC)): 94 % of control
T/C (dose: 0.12 mg/kg/injection, vehicle: Klucel (hydroxypropylcellulose) (HPC)): 102 % of control
T/C (dose: 0.25 mg/kg/injection, vehicle: Klucel (hydroxypropylcellulose) (HPC)): 104 % of control
T/C (dose: 0.38 mg/kg/injection, vehicle: Klucel (hydroxypropylcellulose) (HPC)): 121 % of control
T/C (dose: 0.5 mg/kg/injection, vehicle: Klucel (hydroxypropylcellulose) (HPC)): 100 % of control
T/C (dose: 0.75 mg/kg/injection, vehicle: Klucel (hydroxypropylcellulose) (HPC)): 107 % of control

CC1(C)N=C(N)N=C(N)N1c1ccc(F)c(C(F)(F)F)c1
T/C (dose: 0.37 mg/kg/injection, vehicle: saline): 93 % of control
T/C (dose: 0.75 mg/kg/injection, vehicle: saline): 96 % of control
T/C (dose: 1.5 mg/kg/injection, vehicle: saline): 94 % of control
T/C (dose: 3.0 mg/kg/injection, vehicle: saline): 99 % of control
T/C (dose: 6.0 mg/kg/injection, vehicle: saline): 106 % of control
T/C [8]: 113 % of control
T/C [3]: 120 % of control

N=c1nc2n(cc1F)[C@@H]1O[C@H](CO)[C@@H](O)[C@@H]1O2
T/C [9]: 111 % of control
T/C [10]: 110 % of control
T/C (dose: 50.0 mg/kg/injection, vehicle: Klucel (hydroxypropylcellulose) (HPC)): 121 % of control
T/C [11]: 112 % of control
T/C [1]: 110 % of control
T/C [12]: 117 % of control and 97 % of control
T/C [2]: 104 % of control
T/C [13]: 124 % of control and 105 % of control
T/C (dose: 400.0 mg/kg/injection, vehicle: Klucel (hydroxypropylcellulose) (HPC)): 117 % of control
T/C [14]: 121 % of control

Cc1cc(O)c(Cl)cc1Cl
T/C [12]: 92 % of control
T/C [13]: 87 % of control
T/C [14]: 90 % of control

Nc1nc(-c2ccc(Cl)c([N+](=O)[O-])c2)c(Br)c(=O)[nH]1
T/C (dose: 18.25 mg/kg/injection, vehicle: saline with Tween-80): 121 % of control
T/C (dose: 36.5 mg/kg/injection, vehicle: saline with Tween-80): 118 % of control
T/C (dose: 73.0 mg/kg/injection, vehicle: saline with Tween-80): 100 % of control
T/C (dose: 146.0 mg/kg/injection, vehicle: saline with Tween-80): 100 % of control

CCCCc1ccc(-n2c(C)c(COC(=O)NC)c(COC(=O)NC)c2C)cc1
T/C (dose: 6.25 mg/kg/injection, vehicle: Klucel (hydroxypropylcellulose) (HPC)): 170 % of control
T/C (dose: 12.5 mg/kg/injection, vehicle: Klucel (hydroxypropylcellulose) (HPC)): 174 % of control
T/C [9]: 169 % of control

CC(=Nc1ccccc1)C1=C(O)C(Cc2ccccc2)NC1=O (stereo not drawn)
T/C (dose: 3.13 mg/kg/injection, vehicle: saline with Tween-80): 113 % of control
T/C [4]: 121 % of control
T/C [5]: 115 % of control and 103 % of control
T/C [6]: 119 % of control and 103 % of control
T/C [7]: 113 % of control

CC(=O)N(C)C
T/C (dose: 122.5 mg/kg/injection, vehicle: saline): 89 % of control
T/C (dose: 225.0 mg/kg/injection, vehicle: saline): 95 % of control
T/C (dose: 450.0 mg/kg/injection, vehicle: saline): 95 % of control
T/C (dose: 900.0 mg/kg/injection, vehicle: saline): 105 % of control
T/C (dose: 1800.0 mg/kg/injection, vehicle: saline): 114 % of control

OCC12COCN1COC2
T/C [3]: 98 % of control
T/C [10]: 113 % of control
T/C [11]: 113 % of control and 101 % of control
T/C [12]: 110 % of control and 100 % of control
T/C [13]: 108 % of control and 110 % of control
T/C [14]: 121 % of control and 105 % of control

N#Cc1ccc(NC(=O)Nc2nncs2)cc1
T/C [5]: 120 % of control and 105 % of control
T/C [6]: 118 % of control and 107 % of control
T/C [7]: 111 % of control

O=c1[nH]cnc2c1nnn2C1OC(CO)C(O)C1O (stereo not drawn)
T/C [10]: 96 % of control and 101 % of control
T/C [11]: 116 % of control and 92 % of control
T/C [12]: 104 % of control
T/C [13]: 100 % of control

c1cc[c]([Sn]([c]2ccccc2)([c]2ccccc2)[n]2cccc2)cc1
T/C (dose: 0.79 mg/kg/injection, vehicle: saline with Tween-80): 113 % of control
T/C (dose: 1.56 mg/kg/injection, vehicle: saline with Tween-80): 98 % of control
T/C (dose: 3.12 mg/kg/injection, vehicle: saline with Tween-80): 93 % of control
T/C [4]: 113 % of control

Reference: PubChem BioAssay AID200 (DTP/NCI, 2004)
